Experimental data from US4760136A, “Chartreusin derivatives and salts thereof” (Ishihara Sangyo Kaisha, Ltd., priority 1984, dated 1988).

What was measured:
[1] = Acute toxicity, intravenous (once), ddY mice; format: in vivo; conditions: mouse, in vivo, iv, formulated per Preparation Example
From the text: In Table 7 are shown acute toxicity values (LD50, mg/kg) in ddY mice in the case of intravenously administering (once) each of the compounds of this invention in the form of preparations shown in the Preparation Examples shown in Table 7.

P-388 leukemia cells = assay: Antitumor activity: P-388 leukemia cells inoculated intraperitoneally, drug administered intravenously, BDF1 mice; format: in vivo; conditions: BDF1 mice, P-388 i.p.; for response vs control in vivo at 20 mg/kg: dose b: 20 mg/kg × 3, i.v. on days 1, 5 and 9; for response vs control in vivo at 80 mg/kg: dose f: 80 mg/kg × 3, i.v. on days 1, 5 and 9; for response vs control in vivo at 50 mg/kg: dose d: 50 mg/kg × 3, i.v. on days 1, 5 and 9; for response vs control in vivo at 60 mg/kg: dose e: 60 mg/kg × 3, i.v. on days 1, 5 and 9
How it was run: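 Drug dosing was intravenous on the first, fifth and ninth days after intraperitoneal inoculation of P-388 leukemia cells (1×10^6 per mouse) into BDF1 mice. Vehicles were physiological saline alone, or saline with small amounts of sodium carboxymethyl cellulose or Tween-80.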

[2] = Mus musculus, P388, iv, dose c: 40 mg/kg × 3, i.v. on days 1, 5 and 9, read-out: T/C (%) of MST
[3] = Mus musculus, P388, iv, read-out: T/C (%) of MST

| SMILES | LD50 [1] | response vs control in vivo at 40 mg/kg (P-388 leukemia cells; [2]) | response vs control in vivo at 80 mg/kg (P-388 leukemia cells; [3]) | further results |
| --- | --- | --- | --- | --- |
| COc1ccc(C2OC3C(C)OC(Oc4cccc5c(OC(=O)CCNC(=O)c6ccccc6)c6c(=O)oc7ccc(C)c8c(=O)oc(c45)c6c78)C(OC4OC(C)C(O)C(OC)C4O)C3O2)cc1 (stereo not drawn) [compound 96] | ≥ 40 mg/kg | 162% | – | – |
| COC1C(O)C(C)OC(OC2C(Oc3cccc4c(OC(=O)CCNC=O)c5c(=O)oc6ccc(C)c7c(=O)oc(c34)c5c67)OC(C)C3OC(c4cccc(Cl)c4)OC32)C1O (stereo not drawn) [compound 90] | ≥ 30 mg/kg | – | – | response vs control in vivo at 20 mg/kg (P-388 leukemia cells; [3]): 162% |
| COC1C(O)C(C)OC(OC2C(Oc3cccc4c(OC(=O)CN(C)C(=O)C(F)(F)F)c5c(=O)oc6ccc(C)c7c(=O)oc(c34)c5c67)OC(C)C3OC(C)(C)OC32)C1O (stereo not drawn) [compound 86] | ≥ 100 mg/kg | – | 136% | – |
| COC1C(O)C(C)OC(OC2C(Oc3cccc4c(OC(=O)CCCCCCCNC(=O)C(F)(F)F)c5c(=O)oc6ccc(C)c7c(=O)oc(c34)c5c67)OC(C)C3OC(c4cccc(F)c4)OC32)C1O (stereo not drawn) [Compound No. 64] | ≥ 80 mg/kg | 165% | 210% | – |
| COC1C(O)C(C)OC(OC2C(Oc3cccc4c(OC(=O)CCNC(=O)C(F)(F)F)c5c(=O)oc6ccc(C)c7c(=O)oc(c34)c5c67)OC(C)C3OC(c4cccc(Br)c4)OC32)C1O (stereo not drawn) [Compound No. 31] | ≥ 80 mg/kg | 171% | 238% | – |
| COC1C(O)C(C)OC(OC2C(Oc3cccc4c(OC(=O)C5CCCCC5NC(=O)C(F)(F)F)c5c(=O)oc6ccc(C)c7c(=O)oc(c34)c5c67)OC(C)C3OC(c4ccccc4)OC32)C1O (single isomer, unassigned) [Compound No. 118, 6-O-(N-Trifluoroacetyl-2-Amino-Cyclohexanecarbonyl)-3',4'-O-Benzylidene-Chartreusin] | ≥ 40 mg/kg | – | – | T/C (%) of MST (P-388 leukemia cells; dose c: 40 mg/kg × 3, i.v. on days 1, 5 and 9): 135% |
| COC1C(O)C(C)OC(OC2C(Oc3cccc4c(OC(=O)CNC(=O)c5ccccc5)c5c(=O)oc6ccc(C)c7c(=O)oc(c34)c5c67)OC(C)C3OC(C)(C)OC32)C1O (stereo not drawn) [compound 88] | ≥ 100 mg/kg | – | – | response vs control in vivo at 50 mg/kg (P-388 leukemia cells; [3]): 157% |
| COC1C(O)C(C)OC(OC2C(Oc3cccc4c(OC(=O)CCCCCNC(=O)C(F)(F)F)c5c(=O)oc6ccc(C)c7c(=O)oc(c34)c5c67)OC(C)C3OC(c4ccccc4)OC32)C1O (stereo not drawn) [compound 78, 6-O-(N-trifluoroacetyl-6-amino-n-hexanoyl)-3',4'-O-benzylidene-chartreusin] | ≥ 100 mg/kg | 146% | 176% | – |
| COC1C(O)C(C)OC(OC2C(Oc3cccc4c(OC(=O)CCNC(C)=O)c5c(=O)oc6ccc(C)c7c(=O)oc(c34)c5c67)OC(C)C3OC(C)(C)OC32)C1O (stereo not drawn) [Compound No. 87, 6-O-(N-Acetyl-β-Alanyl)-3',4'-O-Isopropylidene-Chartreusin] | ≥ 100 mg/kg | 134% | 183% | – |
| CO[C@H]1[C@@H](O)[C@@H](C)O[C@H](O[C@H]2[C@H](Oc3cccc4c(OC(=O)c5cccc(N(C)C)c5)c5c(=O)oc6ccc(C)c7c(=O)oc(c34)c5c67)O[C@H](C)[C@@H]3OC(C)(C)O[C@@H]32)[C@@H]1O [compound 209] | ≥ 80 mg/kg | 134% | 192% | – |
| CO[C@H]1[C@@H](O)[C@@H](C)O[C@H](O[C@H]2[C@H](Oc3cccc4c(OC(=O)CCC(=O)c5ccc(F)cc5)c5c(=O)oc6ccc(C)c7c(=O)oc(c34)c5c67)O[C@H](C)[C@@H]3OC(C)(C)O[C@@H]32)[C@@H]1O [compound 206] | ≥ 80 mg/kg | 139% | 180% | – |
| COC1C(O)C(C)OC(OC2C(Oc3cccc4c(OC(=O)c5ccccc5)c5c(=O)oc6ccc(C)c7c(=O)oc(c34)c5c67)OC(C)C3OC(C)(C)OC32)C1O (stereo not drawn) [compound 242] | ≥ 40 mg/kg | – | – | response vs control in vivo at 20 mg/kg (P-388 leukemia cells; [3]): 137% |
| COc1ccc(C2OC3C(C)OC(Oc4cccc5c(OC(=O)CCNC=O)c6c(=O)oc7ccc(C)c8c(=O)oc(c45)c6c78)C(OC4OC(C)C(O)C(OC)C4O)C3O2)cc1 (stereo not drawn) [compound 95] | ≥ 40 mg/kg | 173% | – | – |
| COC1C(O)C(C)OC(OC2C(Oc3cccc4c(OC(=O)C(CC[S+](C)[O-])NC(=O)OCc5ccccc5)c5c(=O)oc6ccc(C)c7c(=O)oc(c34)c5c67)OC(C)C3OC(c4ccccc4)OC32)C1O (stereo not drawn) [Compound No. 79, 6-O-(N-Carbobenzyloxy-S-Oxomethionyl)-3',4'-O-Benzylidene-Chartreusin] | ≥ 40 mg/kg | 179% | – | – |
| COC1C(O)C(C)OC(OC2C(Oc3cccc4c(OC(=O)CCNC(=O)C(Cl)(Cl)Cl)c5c(=O)oc6ccc(C)c7c(=O)oc(c34)c5c67)OC(C)C3OC(c4ccccc4)OC32)C1O (stereo not drawn) [Compound No. 22] | ≥ 40 mg/kg | – | – | response vs control in vivo at 20 mg/kg (P-388 leukemia cells; [3]): 181% |
| COC1C(O)C(C)OC(OC2C(Oc3cccc4c(OC(=O)CCNC=O)c5c(=O)oc6ccc(C)c7c(=O)oc(c34)c5c67)OC(C)C3OC(c4cccc(C(F)(F)F)c4)OC32)C1O (stereo not drawn) [Compound No. 52] | ≥ 80 mg/kg | 162% | 203% | – |
| COC1C(O)C(C)OC(OC2C(Oc3cccc4c(OC(=O)CC(C)C)c5c(=O)oc6ccc(C)c7c(=O)oc(c34)c5c67)OC(C)C3OC(C)(C)OC32)C1O (stereo not drawn) [Compound No. 171] | ≥ 80 mg/kg | 186% | 212% | – |
| COC1C(O)C(C)OC(OC2C(Oc3cccc4c(OC(=O)C(Cc5ccccc5)NC(=O)OCc5ccccc5)c5c(=O)oc6ccc(C)c7c(=O)oc(c34)c5c67)OC(C)C3OC(c4ccc(Cl)cc4)OC32)C1O (stereo not drawn) [compound 127] | ≥ 40 mg/kg | – | – | response vs control in vivo at 20 mg/kg (P-388 leukemia cells; [3]): 130% |
| CO[C@H]1[C@@H](O)[C@@H](C)O[C@H](O[C@H]2[C@H](Oc3cccc4c(OC(=O)c5ccc(Cl)cc5)c5c(=O)oc6ccc(C)c7c(=O)oc(c34)c5c67)O[C@H](C)[C@@H]3OC(C)(C)O[C@@H]32)[C@@H]1O [Compound No. 185] | ≥ 80 mg/kg | 142% | 192% | – |
| COC1C(O)C(C)OC(OC2C(Oc3cccc4c(OC(=O)CCCCCNC(=O)OCc5ccccc5)c5c(=O)oc6ccc(C)c7c(=O)oc(c34)c5c67)OC(C)C3OC(C)(C)OC32)C1O (stereo not drawn) [Compound No. 111, 6-O-(N-Carbobenzyloxy-6-Amino-n-Hexanoyl)-3',4'-O-Isopropylidene-Chartreusin] | ≥ 100 mg/kg | – | – | response vs control in vivo at 60 mg/kg (P-388 leukemia cells; [3]): 175% |
| COC1C(O)C(C)OC(OC2C(Oc3cccc4c(OC(=O)CC[N+](=O)[O-])c5c(=O)oc6ccc(C)c7c(=O)oc(c34)c5c67)OC(C)C3OC(c4ccccc4)OC32)C1O (stereo not drawn) [Compound No. 166] | ≥ 30 mg/kg | – | – | response vs control in vivo at 10 mg/kg (P-388 leukemia cells; Mus musculus, P388, iv, dose a: 10 mg/kg × 3, i.v. on days 1, 5 and 9, read-out: T/C (%) of MST): 138% |
| COC1C(O)C(C)OC(OC2C(Oc3cccc4c(OC(=O)CCNC(=O)c5ccccc5)c5c(=O)oc6ccc(C)c7c(=O)oc(c34)c5c67)OC(C)C3OC(C)(C)OC32)C1O (stereo not drawn) [Compound No. 50] | ≥ 100 mg/kg | – | – | response vs control in vivo at 60 mg/kg (P-388 leukemia cells; [3]): 155% |
| COC1C(O)C(C)OC(OC2C(Oc3cccc4c(OC(=O)C(C)CNC(=O)OCc5ccccc5)c5c(=O)oc6ccc(C)c7c(=O)oc(c34)c5c67)OC(C)C3OC(c4ccccc4)OC32)C1O (stereo not drawn) [Compound No. 69, 6-O-(N-Carbobenzyloxy-β-Amino-Isobutyryl)-3,4-O-Benzylidene-Chartreusin] | ≥ 40 mg/kg | 222% | – | response vs control in vivo at 20 mg/kg (P-388 leukemia cells; [3]): 179% |
| COC1C(O)C(C)OC(OC2C(Oc3cccc4c(OC(=O)C(NC(=O)CNC(=O)CNC(=O)OCc5ccccc5)C(C)C)c5c(=O)oc6ccc(C)c7c(=O)oc(c34)c5c67)OC(C)C3OC(c4ccccc4)OC32)C1O (stereo not drawn) [compound 115] | ≥ 40 mg/kg | – | – | response vs control in vivo at 20 mg/kg (P-388 leukemia cells; [3]): 135% |
| CCCCCCCCCC(=O)Oc1c2cccc(OC3OC(C)C4OC(C)(C)OC4C3OC3OC(C)C(O)C(OC)C3O)c2c2oc(=O)c3c(C)ccc4oc(=O)c1c2c43 (stereo not drawn) [compound 220] | ≥ 60 mg/kg | – | – | response vs control in vivo at 50 mg/kg (P-388 leukemia cells; [3]): 157% |
| COC1C(O)C(C)OC(OC2C(Oc3cccc4c(OC(=O)COC(=O)c5ccccc5)c5c(=O)oc6ccc(C)c7c(=O)oc(c34)c5c67)OC(C)C3OC(c4ccccc4)OC32)C1O (stereo not drawn) [Compound No. 167] | ≥ 40 mg/kg | – | – | response vs control in vivo at 20 mg/kg (P-388 leukemia cells; [3]): 198% |
| C/C=C(\C)C(=O)Oc1c2cccc(OC3OC(C)C4OC(C)(C)OC4C3OC3OC(C)C(O)C(OC)C3O)c2c2oc(=O)c3c(C)ccc4oc(=O)c1c2c43 (stereo not drawn) [Compound No. 173] | ≥ 80 mg/kg | 152% | 192% | – |
| C/C=C/C(=O)Oc1c2cccc(O[C@@H]3O[C@H](C)[C@@H]4OC(C)(C)O[C@@H]4[C@H]3O[C@H]3O[C@H](C)[C@H](O)[C@H](OC)[C@H]3O)c2c2oc(=O)c3c(C)ccc4oc(=O)c1c2c43 [compound 200] | ≥ 80 mg/kg | 168% | – | – |
| COC1C(O)C(C)OC(OC2C(Oc3cccc4c(OC(=O)CCCCCNC(=O)C(F)(F)F)c5c(=O)oc6ccc(C)c7c(=O)oc(c34)c5c67)OC(C)C3OC(C)(C)OC32)C1O (stereo not drawn) [compound 98] | ≥ 100 mg/kg | – | 187% | – |
